The results in this text go back to patent USRE39420E1, “1,2-Diphenylpyrrole derivatives, their preparation and their therapeutic uses” (Sankyo Company, Limited, priority 1996, dated 2006).

For experiment [1], the system named is TNFα production in human peripheral monocytes. Description: Inhibitory effect on TNFα production in LPS-stimulated human peripheral monocytes. Type of experiment: cell-based. To be noted: Monocyte, LPS 10 μg/ml, 20 hours. The procedure: (§1) (1) Peripheral blood was collected from healthy human volunteers in the presence of heparin. After mixing it with an equal volume of phosphate-buffered saline (PBS, Nissui Pharmaceutical), the mixture was layered onto Ficoll Paque medium (Pharmacia) at the rate of 2:1 and centrifuged at 520×g at 25° C. for 20 minutes. After centrifugation, the monocyte layer was removed and suspended in RPMI 1640 (Nissui Pharmaceutical) containing 10% fetal calf serum (FCS). The monocytes were washed once with the same medium, placed in a plastic Petri dish, pre-treated with human plasma and incubated for 2 hours in the presence of 5% CO2 to cause them to adhere to the dish. After incubation, the Petri dish was washed twice with PBS to remove the non-adherent cells. Thereafter, PBS containing 5% FCS and 0.2% EDTA was added to the Petri dish and the dish was allowed to stand undisturbed for 15 minutes at 4° C. The monocytes were recovered from the dish by pipetting. The cells were finally suspended in RPMI 1640 at a concentration of 1.25×10^5 cells/ml. (2) Culture of Human Monocytes
(§2) A 40 μl solution of the test compound and 40 μl of lipopolysaccharide (LPS; E. coli, 0.26:B6, Difco), adjusted to a final concentration of 10 μg/ml, were added to 320 μl of cell suspension. The resulting mixture was then cultured for 20 hours in the presence of 5% CO2 and the supernatant was removed at the end of cultivation to assay IL-1β and TNFα. The test compound was dissolved in dimethyl sulfoxide and diluted by a factor of 100 with FCS to reach 10 times the final concentration (the final concentrations of dimethyl sulfoxide and FCS were 0.1% and 10%, respectively).
(§3) The amount of IL-1β was measured with a commercially available ELISA kit (Cayman), after diluting the supernatant medium by a factor of 15 or 30 with the ELISA buffer. The amount of TNFα was similarly measured by a ELISA kit (Genzyme) after diluting the supernatant by a factor of 2.
(§4) The IC50 was calculated from the regression line determined by the inhibition rates and the concentrations of the test compound.

The test system of experiment [2] is IL-1β production in human peripheral monocytes. Description: Inhibitory effect on IL-1β production in LPS-stimulated human peripheral monocytes. Type of experiment: cell-based. To be noted: Monocyte, LPS 10 μg/ml, 20 hours. The procedure:
as §1, §2, §3, §4

In experiment [3] the test system is scald-induced Pain in rats. Briefly: Scald-induced pain test. Type of experiment: in vivo, Wistar-Imamichi rats. The settings on record: oral; pain response time, mean of 1 and 2 hours after dosing. The protocol: The test was conducted in accordance with the method of Iizuka and Tanaka [Jpn. J. Pharmacol. 70, 697, (1967)]. The test compound was administered in the same manner as in Experiment 3. Male Wistar-Imamichi rats (4-5 week old, body weights: approximately 100 g) were used after fasting for 16 hours. The right hind foot of the animal was immersed in hot water at 57° C. for 6 seconds to induce scald under ether-anesthesia. Two hours later, the scald foot of the rat was irritated by immersing in hot water at 40° C. for 5 seconds, and the animal was returned to the cage. […] Lifting up the scalded foot or licking it without coming in contact with the metal cage were considered to be pain responses. Pain response time was determined as the total time of the pain response during the 30-second observation period. […] Pain response time was again measured 1 and 2 hours after dosing and the mean value was determined. Using the mean values, inhibition rates were calculated relative to the control group. ID50 was calculated from the regression line determined by the inhibition rates and the doses.

Experiment [4] deals with yeast-inflamed pain in rats. Briefly: Analgesic effect on yeast-inflamed pain in rats (Randall-Selitto method). Type of experiment: in vivo, Wistar-Imamichi rats. The settings on record: Rattus norvegicus, oral, pain threshold 0.5, 1 and 2 hours after administration, read-out: Efficacy Rate (No. of animals in which drug was effective/No. of animals used in test) (converted). In a few lines: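 Male Wistar-Imamichi rats were fasted 16 h and given compound orally in 0.5% tragacanth. Paw inflammation was induced by subcutaneous 20% brewer's yeast, and pressure pain threshold was measured from 4.5 h at 0.5, 1 and 2 h. An animal counted as responding if its threshold exceeded twice the control mean, and efficacy rate followed Blake's method.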

The test system of a further experiment is yeast-induced fever. Briefly: Antipyretic effect on yeast-induced fever. Type of experiment: in vivo, Wistar-Imamichi rats. To be noted: Dose: 0.4 mg/kg, oral; mean of 1 and 2 hours after dosing. The procedure:
The method of Roszkowski et al. [J. Pharmacol. Exp. Ther. 179, 114, (1971)] was slightly modified to perform the test. The test compound was administered in the same manner as in Experiment 3. Male Wistar-Imamichi rats (6 week old, body weights: approximately 120 g) were used in the test. Yeast (Brewer's yeast, Sigma) was suspended in physiological saline to a concentration of 25%, finely crushed in an agate mortar, and injected subcutaneously into the backs of the rats under ether-anesthesia at a volume of 2 ml/rat. The rats were fasted after the injection of yeast. On the following day (19 hours after the yeast injection), a catheter-type thermistor thermometer (Japan Koden, MGA III) was inserted approximately 5 cm into the rectum to measure the temperature of the animals. […] Rectal temperatures were measured 1 and 2 hours after administration of the test compound, and fever temperature was calculated by subtracting the normal temperature of healthy animals measured simultaneously. Inhibition rate of the group treated with the compound relative to the control group was calculated by using the mean value at 1 and 2 hours after dosing.

Structures are written as SMILES.

Turning to `Cc1ccc(-c2ccccc2)n1-c1ccc(S(N)(=O)=O)cc1` [Compound A, 5-methyl-2-phenyl-1-(4-sulfamoylphenyl)pyrrole, reference compound], the values for the inhibition at 10 µM in experiment [1] and in experiment [2] were 13.9% and 24.2%, respectively.
As for `COc1ccc(-c2cc(C)cn2-c2ccc(S(N)(=O)=O)cc2)cc1` [Example 52, 2-(4-Methoxyphenyl)-4-methyl-1-(4-sulfamoylphenyl)pyrrole], the “ID50” value in experiment [3] amounted to 1.1 mg/kg. Besides, the responders at 12.5 mg/kg in experiment [4] was 100%. Moreover, the “Inhibition Rate (%)” value with yeast-induced fever was determined as 82%.
